These molecules were tested against human neprilysin (EC 3.4.24.11; NEP) (Homo sapiens (Human), UniProt P08473) (assay: In vitro enzyme inhibition assay at human NEP (fluorogenic peptide substrate)). Conditions: pKi values at human NEP, recombinant human NEP.
Type: biochemical
Experimental: In Vitro Assays for the Quantitation of Inhibitor Potencies at Human and Rat NEP, and Human ACE
The inhibitory activities of compounds at human and rat neprilysin (EC 3.4.24.11; NEP) and human angiotensin converting enzyme (ACE) were determined using in vitro assays as described below.
Recombinant human NEP and recombinant human ACE were obtained commercially (R&D Systems, Minneapolis, Minn., catalog numbers 1182-ZN and 929-ZN, respectively). The fluorogenic peptide substrate Mca-D-Arg-Arg-Leu-Dap-(Dnp)-OH (Medeiros et al. (1997) Braz. J. Med. Biol. Res. 30:1157-62; Anaspec, San Jose, Calif.) and Abz-Phe-Arg-Lys(Dnp)-Pro-OH (Araujo et al. (2000) Biochemistry 39:8519-8525; Bachem, Torrance, Calif.) were used in the NEP and ACE assays respectively.
The assays were performed in 384-well white opaque plates at 37° C. using the fluorogenic peptide substrates at a concentration of 10 μM in Assay Buffer (NEP: 50 mM HEPES, pH 7.5, 100 mM NaCl, 0.01% polyethylene glycol sorbitan monolaurate (Tween-20), 10 μM ZnSO4; ACE: 50 mM HEPES, pH 7.5, 100 mM NaCl, 0.01% Tween-20, 1 μM ZnSO4).
Test compounds were assayed over the range of concentrations from 10 μM to pM. Test compounds were added to the enzymes and incubated for 30 minute at 37° C. prior to initiating the reaction by the addition of substrate. Reactions were terminated after 20 minutes of incubation at 37° C. by the addition of glacial acetic acid to a final concentration of 3.6% (v/v).
Plates were read on a fluorometer with excitation and emission wavelengths set to 320 nm and 405 nm, respectively. Inhibition constants were obtained by nonlinear regression of the data using the equation (GraphPad Software, Inc., San Diego, Calif.): v=v0/[1+(I/K′)] where v is the reaction rate, v0 is the uninhibited reaction rate, I is the inhibitor concentration and K′ is the apparent inhibition constant.
Compounds of the invention were tested in this assay and found to have pKi values at human NEP as follows.

human neprilysin (EC 3.4.24.11; NEP), sequence (P08473 52-750): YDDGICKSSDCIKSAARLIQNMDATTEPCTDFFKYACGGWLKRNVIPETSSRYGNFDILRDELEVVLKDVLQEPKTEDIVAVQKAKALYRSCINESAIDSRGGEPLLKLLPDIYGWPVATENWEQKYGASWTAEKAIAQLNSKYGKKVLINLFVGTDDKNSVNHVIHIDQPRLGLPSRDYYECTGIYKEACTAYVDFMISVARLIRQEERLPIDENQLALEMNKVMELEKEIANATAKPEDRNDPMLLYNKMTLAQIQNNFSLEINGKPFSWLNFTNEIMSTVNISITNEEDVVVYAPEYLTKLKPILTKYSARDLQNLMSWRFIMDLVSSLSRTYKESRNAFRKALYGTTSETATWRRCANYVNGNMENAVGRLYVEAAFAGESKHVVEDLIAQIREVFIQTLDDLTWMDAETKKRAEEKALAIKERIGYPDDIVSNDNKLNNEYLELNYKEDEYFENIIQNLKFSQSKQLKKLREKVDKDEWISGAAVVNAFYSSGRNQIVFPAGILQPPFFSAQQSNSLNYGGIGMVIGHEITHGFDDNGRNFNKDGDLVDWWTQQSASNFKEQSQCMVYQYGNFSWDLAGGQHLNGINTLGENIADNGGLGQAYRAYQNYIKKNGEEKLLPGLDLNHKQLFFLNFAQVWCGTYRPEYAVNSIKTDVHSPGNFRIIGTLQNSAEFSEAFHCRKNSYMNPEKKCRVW

Row | pKi | Ki [nM] | SMILES
1 | ≥9.0 | – | NC(=O)C1CCN(C(=O)c2cc(C(=O)N[C@H](Cc3ccc(-c4ccccc4)cc3)C[C@@H](O)C(=O)O)[nH]n2)C1 (stereo partly drawn) [Example 15-46, (2R,4R)-5-Biphenyl-4-yl-4-{[5-(3-carbamoylpyrrolidine-1-carbonyl)-2H-pyrazole-3-carbonyl]-amino}-2-hydroxy-pentanoic acid]
2 | – | 1.26 to 10 | O=C(N[C@H](Cc1ccc(-c2ccccc2)cc1)CC(O)C(=O)O)c1cc(-c2ccc(F)cc2)n[nH]1 (stereo partly drawn) [Example 15-82, (R)-5-Biphenyl-4-yl-4-{[5-(4-fluorophenyl)-2H-pyrazole-3-carbonyl]amino}-2-hydroxy-pentanoic acid]
3 | ≥9.0 | – | O=C(NC1CC1)c1cc(C(=O)N[C@H](Cc2ccc(-c3ccccc3)cc2)C[C@@H](O)C(=O)O)[nH]n1 [Example 15-57, (2R,4R)-5-Biphenyl-4-yl-4-[(5-cyclopropylcarbamoyl-2H-pyrazole-3-carbonyl)-amino]-2-hydroxypentanoic acid]
4 | – | 1.26 to 10 | NC(=O)c1cc(C(=O)N[C@H](Cc2ccc(-c3ccccc3)cc2)CC(O)C(=O)O)[nH]n1 (stereo partly drawn) [Example 15-59, (R)-5-Biphenyl-4-yl-4-[(5-carbamoyl-2H-pyrazole-3-carbonyl)-amino]-2-hydroxy-pentanoic acid]
5 | – | 1.26 to 10 | CC(C)(c1ccc(-c2ccccc2)cc1)[C@H](C[C@@H](O)C(=O)O)NC(=O)c1cn(O)nn1 [Example 25-2, (2R,4S)-5-Biphenyl-4-yl-2-hydroxy-4-[(1-hydroxy-1H-[1,2,3]triazole-4-carbonyl)-amino]-5-methyl-hexanoic acid]
6 | ≥9.0 | – | O=C(N[C@H](Cc1ccc(-c2cccc(Cl)c2)cc1)C[C@@H](O)C(=O)O)c1ccc2nnn(O)c2c1 [Example 18-3, (2R,4R)-5-(3′-Chlorobiphenyl-4-yl)-2-hydroxy-4-[(3-hydroxy-3H-benzotriazole-5-carbonyl)-amino]-pentanoic acid]
7 | – | 1.26 to 10 | O=C(N[C@H](Cc1ccc(-c2ccccc2)cc1)CC(O)C(=O)O)c1cc(C(=O)O)n(Cc2ccc(Cl)cc2)n1 (stereo partly drawn) [Example 15-15, 5-((R)-1-Biphenyl-4-ylmethyl-3-carboxy-3-hydroxy-propylcarbamoyl)-2-(4-chlorobenzyl)-2H-pyrazole-3-carboxylic acid]
8 | ≥9.0 | – | O=C(N[C@H](Cc1ccc(-c2cccc(Cl)c2)cc1)C[C@@H](O)C(=O)O)c1cc(O)n(-c2ccccc2F)n1 [Example 18-38, (2R,4R)-5-(3′-Chloro-biphenyl-4-yl)-4-{[1-(2-fluoro-phenyl)-5-hydroxy-1H-pyrazole-3-carbonyl]-amino}-2-hydroxy-pentanoic acid]
9 | ≥9.0 | – | CCCc1cc(C(=O)N[C@H](Cc2ccc(-c3cccc(Cl)c3)cc2)C[C@@H](O)C(=O)O)on1 [Example 18-11, (2R,4R)-5-(3′-Chloro-biphenyl-4-yl)-2-hydroxy-4-[(3-propyl-isoxazole-5-carbonyl)-amino]-pentanoic acid]
10 | – | 1.26 to 10 | Cn1nc(C(=O)N[C@H](Cc2ccc(-c3ccccc3)cc2)CC(O)C(=O)O)cc1-c1ccccc1 (stereo partly drawn) [Example 15-34, (R)-5-Biphenyl-4-yl-2-hydroxy-4-[(1-methyl-5-phenyl-1H-pyrazole-3-carbonyl)amino]-pentanoic acid]
11 | – | 1.26 to 10 | O=C(N[C@H](Cc1ccc(-c2ccccc2)cc1)C[C@@H](O)C(=O)O)c1cc(-c2ccncc2)[nH]n1 [Example 15-20, (2R,4R)-5-Biphenyl-4-yl-2-hydroxy-4-[(5-pyridin-4-yl-1H-pyrazole-3-carbonyl)-amino]-pentanoic acid]
12 | – | 1.26 to 10 | O=C(N[C@H](Cc1ccc(-c2ccccc2)cc1)CC(O)C(=O)O)c1cc(C(=O)O)n(Cc2c(F)cc(Cl)cc2F)n1 (stereo partly drawn) [Example 15-8, 5-((R)-1-Biphenyl-4-ylmethyl-3-carboxy-3-hydroxy-propylcarbamoyl)-2-(4-chloro-2,6-difluorobenzyl)-2H-pyrazole-3-carboxylic acid]
13 | – | 12.6 to 100 | COCC(=O)Nc1cc(C(=O)N[C@H](Cc2ccc(-c3ccccc3)cc2)CC(O)C(=O)O)[nH]n1 (stereo partly drawn) [Example 15-94, (R)-5-Biphenyl-4-yl-2-hydroxy-4-{[5-(2-methoxy-acetylamino)-2H-pyrazole-3-carbonyl]-amino}-pentanoic acid]
14 | ≥9.0 | – | O=C(N[C@@H](Cc1ccc(-c2cc(Cl)ccc2Cl)cc1)C[C@H](O)C(=O)O)c1ccc2nnn(O)c2c1 [Example 23-4, (2S,4S)-5-(2′,5′-Dichlorobiphenyl-4-yl)-2-hydroxy-4-[(3-hydroxy-3H-benzotriazole-5-carbonyl)-amino]-pentanoic acid]
15 | ≥9.0 | – | COc1ccc(OC)c(-c2cc(C(=O)N[C@H](Cc3ccc(-c4ccccc4)cc3)C[C@@H](O)C(=O)O)[nH]n2)c1 [Example 15-80, (2R,4R)-5-Biphenyl-4-yl-4-{[5-(2,5-dimethoxy-phenyl)-2H-pyrazole-3-carbonyl]-amino}-2-hydroxy-pentanoic acid]
16 | – | 12.6 to 100 | O=C(NCCc1cnc[nH]1)c1cc(C(=O)N[C@H](Cc2ccc(-c3ccccc3)cc2)C[C@@H](O)C(=O)O)[nH]n1 [Example 15-69, (2R,4R)-5-Biphenyl-4-yl-2-hydroxy-4-({5-[2-(3H-imidazol-4-yl)-ethylcarbamoyl]-2H-pyrazole-3-carbonyl}amino)pentanoic acid]

Further lines, the molecule ahead of its results:

Row | SMILES | pKi | Ki [nM]
17 | CC(=O)Nc1ncc(C(=O)N[C@H](Cc2ccc(-c3ccccc3)cc2)C[C@@H](O)C(=O)O)s1 [Example 12-24, (2R,4R)-4-[(2-Acetylamino-thiazole-5-carbonyl)-amino]-5-biphenyl-4-yl-2-hydroxy-pentanoic acid] | – | 12.6 to 100
18 | Cc1nc2ccc(C(=O)N[C@H](Cc3ccc(-c4ccccc4)cc3)CC(O)C(=O)O)cc2o1 (stereo partly drawn) [Example 11-8, (R)-5-Biphenyl-4-yl-2-hydroxy-4-[(2-methyl-benzooxazole-6-carbonyl)-amino]-pentanoic acid] | – | 12.6 to 100
19 | O=C(N[C@H](Cc1ccc(-c2ccccc2)cc1)C[C@@H](O)C(=O)O)c1nc(-c2ccccc2Cl)no1 [Example 12-26, (2R,4R)-5-Biphenyl-4-yl-4-{[3-(2-chlorophenyl)-[1,2,4]oxadiazole-5-carbonyl]-amino}-2-hydroxy-pentanoic acid] | – | 1.26 to 10
20 | COc1cc(C(=O)N[C@H](Cc2ccc(-c3ccccc3)cc2)C[C@@H](O)C(=O)O)on1 [Example 12-3, (2R,4R)-5-Biphenyl-4-yl-2-hydroxy-4-[(3-methoxyisoxazole-5-carbonyl)amino]-pentanoic acid] | – | 1.26 to 10
21 | COCCN(C)C(=O)c1cc(C(=O)N[C@H](Cc2ccc(-c3ccccc3)cc2)C[C@@H](O)C(=O)O)[nH]n1 [Example 3-D, (2R,4R)-5-Biphenyl-4-yl-2-hydroxy-4-({5-[(2-methoxyethyl)methylcarbamoyl]-2H-pyrazole-3-carbonyl}amino)pentanoic Acid] | ≥9.0 | –
22 | O=C(O)c1cnc(C(=O)N[C@H](Cc2ccc(-c3ccccc3)cc2)CC(O)C(=O)O)cn1 (stereo partly drawn) [Example 13-1, 5-((R)-1-Biphenyl-4-ylmethyl-3-carboxy-3-hydroxypropylcarbamoyl)-pyrazine-2-carboxylic acid] | – | 1.26 to 10
23 | O=C(N[C@H](Cc1ccc(-c2ccccc2)cc1)CC(O)C(=O)O)c1ccc2[nH]nnc2c1Cl (stereo partly drawn) [Example 11-7, (R)-5-Biphenyl-4-yl-4-[(4-chloro-1H-benzotriazole-5-carbonyl)amino]-2-hydroxy-pentanoic acid] | – | 1.26 to 10

Source: patent publication US10759813B2, “Neprilysin inhibitors” (THERAVANCE BIOPHARMA R&D IP, LLC, priority 2010, dated 2020)
